Key:
Format in all cases: cell-based
[1] = system: SARS-COV-2 England/204820464/2020 (alpha variant; NR-54000); assay: microbe, parasite or virus in culture; details: Plaque, Vero, virus UK
[2] = system: SARS-COV-2 SouthAfrica/KRISP-K005325/2020 (beta variant; NR-54009); assay: microbe, parasite or virus in culture; details: Plaque, Vero, virus SA
[3] = system: SARS-COV-2 SouthAfrica/KRISP-K005325/2020 (beta variant; NR-54009); assay: microbe, parasite or virus in culture
[4] = system: SARS-COV-2 US-PHC658/2021 (delta variant; NR-55611); assay: microbe, parasite or virus in culture; details: PCR, Vero, virus Delta
[5] = system: SARS-COV-2 England/204820464/2020 (alpha variant; NR-54000); assay: microbe, parasite or virus in culture; details: PCR, Calu-3, virus UK
[6] = system: SARS-COV-2 England/204820464/2020 (alpha variant; NR-54000); assay: microbe, parasite or virus in culture
[7] = system: SARS-COV-2 USA/MD-HP20874/2021 (omicron variant; NR-56461); assay: microbe, parasite or virus in culture; details: Plaque, Vero, virus Omicron
[8] = system: SARS-COV-2 strain US (US-WA1/2020); assay: plaque assay, strain US, summary over cell types; details: Severe acute respiratory syndrome coronavirus 2, two-way ANOVA estimate
[9] = system: SARS-COV-2 US-PHC658/2021 (delta variant; NR-55611); assay: microbe, parasite or virus in culture; details: PCR, Calu-3, virus Delta
[10] = system: SARS-COV-2 US-PHC658/2021 (delta variant; NR-55611); assay: microbe, parasite or virus in culture; details: Plaque, Calu-3, virus Delta
[11] = system: SARS-COV-2 England/204820464/2020 (alpha variant; NR-54000); assay: microbe, parasite or virus in culture; details: Plaque, Calu-3, virus UK
[12] = system: SARS-COV-2 USA/MD-HP20874/2021 (omicron variant; NR-56461); assay: microbe, parasite or virus in culture; details: PCR, Vero, virus Omicron
[13] = system: SARS-COV-2 USA/MD-HP20874/2021 (omicron variant; NR-56461); assay: microbe, parasite or virus in culture; details: PCR, Calu-3, virus Omicron
[14] = system: SARS-COV-2 US-PHC658/2021 (delta variant; NR-55611); assay: microbe, parasite or virus in culture; details: Plaque, Vero, virus Delta
[15] = system: SARS-COV-2 SouthAfrica/KRISP-K005325/2020 (beta variant; NR-54009); assay: microbe, parasite or virus in culture; details: PCR, Calu-3, virus SA
[16] = system: SARS-COV-2 SouthAfrica/KRISP-K005325/2020 (beta variant; NR-54009); assay: microbe, parasite or virus in culture; details: Plaque, Calu-3, virus SA
[17] = system: SARS-COV-2 USA/MD-HP20874/2021 (omicron variant; NR-56461); assay: microbe, parasite or virus in culture; details: Plaque, Calu-3, virus Omicron
[18] = Severe acute respiratory syndrome coronavirus 2, m.o.i 0.1, […]
[19] = PCR, Vero, virus SA, log-logistic curve fit
[20] = Severe acute respiratory syndrome coronavirus 2, Vero
[21] = PCR, Vero, virus UK, log-logistic curve fit

Cn1cc(-c2cccc3cc(C(=O)NC(=N)N)ccc23)cn1 [BIT225, N-carbamimidoyl-5-(1-methyl-1H-pyrazol-4-yl)-2-naphthamide]
Max. Response (d) ([1]; log-logistic curve fit): 6.41 log10 | EC50 [1, 18]: 6.7 µM | Slope (b) ([2]; log-logistic curve fit): 1.50 nmol⁻¹ | EC50 [2, 18]: 7.26 µM | Max. Response (d) [3, 19]: 3.52 log10 | Slope (b) [3, 19]: 1.28 nmol⁻¹ | EC50 [3, 20]: 2.65 µM | Max. Response (d) ([4]; log-logistic curve fit): 3.55 log10 | Slope (b) ([4]; log-logistic curve fit): 1.15 nmol⁻¹ | EC50 [4, 18]: 3.59 µM | Max. Response (d) ([5]; log-logistic curve fit): 2.58 log10 | Slope (b) ([5]; log-logistic curve fit): 1.21 nmol⁻¹ | EC50 [5, 18]: 2.86 µM | Max. Response (d) [6, 21]: 3.58 log10 | Slope (b) [6, 21]: 1.07 nmol⁻¹ | EC50 [6, 20]: 4.56 µM | Max. Response (d) ([7]; log-logistic curve fit): 6.31 log10 | Slope (b) ([7]; log-logistic curve fit): 1.41 nmol⁻¹ | EC50 [7, 18]: 6.5 µM | EC50 [8]: 3.8 µM | Max. Response (d) ([9]; log-logistic curve fit): 2.56 log10 | Slope (b) ([9]; log-logistic curve fit): 1.08 nmol⁻¹ | EC50 [9, 18]: 4.81 µM | Max. Response (d) ([10]; log-logistic curve fit): 3.44 log10 | Slope (b) ([10]; log-logistic curve fit): 1.00 nmol⁻¹ | EC50 [10, 18]: 7.9 µM | Max. Response (d) ([11]; log-logistic curve fit): 3.43 log10 | Slope (b) ([11]; log-logistic curve fit): 1.15 nmol⁻¹ | EC50 [11, 18]: 5.72 µM | Max. Response (d) ([12]; log-logistic curve fit): 3.51 log10 | Slope (b) ([12]; log-logistic curve fit): 1.22 nmol⁻¹ | EC50 [12, 18]: 3.37 µM | Max. Response (d) ([13]; log-logistic curve fit): 2.57 log10 | Slope (b) ([13]; log-logistic curve fit): 1.08 nmol⁻¹ | EC50 [13, 18]: 4.37 µM | Max. Response (d) ([14]; log-logistic curve fit): 6.45 log10 | Slope (b) ([14]; log-logistic curve fit): 1.48 nmol⁻¹ | EC50 [14, 18]: 6.65 µM | Max. Response (d) ([15]; log-logistic curve fit): 2.67 log10 | Slope (b) ([15]; log-logistic curve fit): 1.07 nmol⁻¹ | EC50 [15, 18]: 4.17 µM | Max. Response (d) ([16]; log-logistic curve fit): 3.52 log10 | Slope (b) ([16]; log-logistic curve fit): 1.34 nmol⁻¹ | EC50 [16, 18]: 6.79 µM | Max. Response (d) ([17]; log-logistic curve fit): 3.42 log10 | Slope (b) ([17]; log-logistic curve fit): 1.11 nmol⁻¹ | EC50 [17, 18]: 7.61 µM
